Like-named read-outs stand apart in the source and are kept apart here.
Assays:
[1] = system: symmetric di-methyl arginine in Z-138 cells; assay: Z-138 Methylation Assay (In Cell Western for symmetric di-methyl arginine and DNA content); assay type: cell-based; conditions: Homo sapiens, In Cell Western methylation, read-out: ICW EC50
Method in brief: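 In-cell western: symmetric di-methyl arginine signal ratioed to DRAQ5 DNA content after 96 h compound exposure of Z-138 cells seeded at 50,000 cells/mL.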

[2] = system: Z-138 cell line; assay: Z-138 Proliferation Assay (Cell Titer Glo, 5 days); assay type: cell-based; conditions: Homo sapiens, read-out: Proliferation EC50
Method in brief: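 Viability via CellTiter-Glo luminescence (ATP) after 5-day incubation at 37 °C, 5% CO2. Compounds tested in triplicate, nine 3-fold steps, highest final concentration 20 μM in 0.2% DMSO; 50% inhibitory concentration by 4-parameter fit of normalized curves.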

[3] = biological target: PRMT5/MEP50 (Homo sapiens (Human), UniProt O14744); assay: PRMT5 Biochemical Assay (PRMT5/MEP50 enzyme assay on peptide substrate, 3H-SAM Flashplate); conditions: PRMT5 biochemical assay
Chain of PRMT5/MEP50 (O14744 other isoform, or with tags, fused parts or gaps): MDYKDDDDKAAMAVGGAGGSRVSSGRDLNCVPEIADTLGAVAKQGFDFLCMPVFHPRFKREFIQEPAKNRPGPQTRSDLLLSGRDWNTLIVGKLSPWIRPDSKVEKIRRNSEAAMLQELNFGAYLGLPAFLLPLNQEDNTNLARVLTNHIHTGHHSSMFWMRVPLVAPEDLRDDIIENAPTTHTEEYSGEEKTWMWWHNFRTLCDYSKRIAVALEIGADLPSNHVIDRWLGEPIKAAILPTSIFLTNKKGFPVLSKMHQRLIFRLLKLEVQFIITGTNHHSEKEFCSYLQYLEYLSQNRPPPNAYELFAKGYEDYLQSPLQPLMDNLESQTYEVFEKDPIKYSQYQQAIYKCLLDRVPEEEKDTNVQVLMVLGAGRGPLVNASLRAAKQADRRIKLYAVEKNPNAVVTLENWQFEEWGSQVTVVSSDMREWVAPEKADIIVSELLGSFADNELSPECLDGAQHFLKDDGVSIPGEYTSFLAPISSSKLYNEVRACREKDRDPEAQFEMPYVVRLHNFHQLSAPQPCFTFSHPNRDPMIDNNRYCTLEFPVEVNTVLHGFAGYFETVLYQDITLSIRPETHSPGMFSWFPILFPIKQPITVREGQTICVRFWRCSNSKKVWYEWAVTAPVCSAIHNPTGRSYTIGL
Chain of PRMT5/MEP50 (Q9BQA1 other isoform, or with tags, fused parts or gaps partner): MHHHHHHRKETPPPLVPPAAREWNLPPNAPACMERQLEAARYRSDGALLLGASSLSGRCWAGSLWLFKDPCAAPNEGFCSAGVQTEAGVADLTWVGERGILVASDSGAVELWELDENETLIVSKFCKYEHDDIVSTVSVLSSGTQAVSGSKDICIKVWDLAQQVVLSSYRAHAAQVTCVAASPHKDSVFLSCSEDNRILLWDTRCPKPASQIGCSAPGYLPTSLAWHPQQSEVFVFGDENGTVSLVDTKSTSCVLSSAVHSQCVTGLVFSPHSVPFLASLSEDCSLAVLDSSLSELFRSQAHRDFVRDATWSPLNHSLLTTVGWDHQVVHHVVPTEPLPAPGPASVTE
Method in brief: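 Radiometric methylation of a biotin-tagged H4(1-15) peptide by human PRMT5/MEP50 from baculovirus/Sf9, with ³H-SAM incorporation read on streptavidin Flashplates. Buffer: Bicine pH 7.6, TCEP, BSG, Tween20; compound preincubated 30 min at 25 °C; stopped with 600 µM final unlabeled SAM. DMSO and SAH controls; IC50 from fitted % inhibition.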

[4] = 120 h, Z-138 cells, 5 days, Cell Titer Glo

Row | SMILES | EC50 [1] [µM] | IC50 [3] [µM] | EC50 [2, 4] [µM] | EC50 ([2]; Z-138, 120 h) [µM]
1 | CCS(=O)(=O)CCNCC1CN2C=NC(C(=O)NC[C@H](O)CN3CCc4ccccc4C3)=CC2=N1 (stereo partly drawn) [Compound 617] | > 1 | 0.101 to 1 | > 5 | 
2 | CO[C@H]1CC[C@@H](N(C)c2cc(C(=O)NC[C@H](O)CN3CCc4ccccc4C3)ncn2)CC1 [Compound 618] | < 0.1 | < 0.1 | 1 to 10 | 
3 | O=C(NC[C@H](O)CN1CCc2ccccc2C1)c1cnnc(OC2CCNCC2)c1 [Compound 619] | 0.101 to 1 | < 0.1 | 10 to 50 | 
4 | CN1CCC(Oc2cc(C(=O)NC[C@H](O)CN3CCc4ccccc4C3)cnn2)CC1 [Compound 620] | 0.101 to 1 | < 0.1 | 10 to 50 | 
5 | NC(=O)CN1CC(Nc2cc(C(=O)NC[C@H](O)CN3CCc4ccccc4C3)ncn2)C1 [Compound 621] | 1 to 10 | < 0.1 | 1 to 10 | 
6 | CNC(=O)CN1CC(Nc2cc(C(=O)NC[C@H](O)CN3CCc4ccccc4C3)ncn2)C1 [Compound 622] | 1 to 10 | < 0.1 | 1 to 10 | 
7 | CO[C@H]1CC[C@@H](Nc2cc(C(=O)NC[C@H](O)CN3CCc4ccccc4C3)ncn2)CC1 [Compound 624] | < 0.1 | < 0.1 | < 0.1 | 
8 | O=C(NC[C@H](O)CN1CCc2ccccc2C1)c1cnnc(OC2CCN(CC(F)(F)F)CC2)c1 [Compound 626] | 0.101 to 1 | 0.101 to 1 | 1 to 10 | 
9 | COc1cc(C(=O)NC[C@H](O)CN2CCc3ccccc3C2)cc(NC2CCN(C(C)=O)CC2)n1 [Compound 627] | < 0.1 | < 0.1 | < 0.1 | 
10 | CC(=O)N1CCC(Nc2cc(C(=O)NC[C@H](O)CN3CCc4ccccc4C3)cc(OCCN(C)C)n2)CC1 [Compound 628] | < 0.1 | < 0.1 | < 0.1 | 
11 | CC(=O)N1CC(Nc2cc(C(=O)NC[C@H](O)CN3CCc4ccccc4C3)cnn2)C1 [Compound 629] | 0.101 to 1 | < 0.1 | 1 to 10 | 
12 | CN[C@H]1CC[C@@H](Nc2cc(C(=O)NC[C@H](O)CN3CCc4ccccc4C3)ncn2)CC1 [Compound 630] | 0.101 to 1 | < 0.1 | > 5 | 
13 | CCN(C)[C@H]1CC[C@@H](Nc2cc(C(=O)NC[C@H](O)CN3CCc4ccccc4C3)ncn2)CC1 [Compound 631] | 0.101 to 1 | < 0.1 | > 5 | 
14 | CC(=O)N(C)[C@H]1CC[C@@H](Nc2cc(C(=O)NC[C@H](O)CN3CCc4ccccc4C3)ncn2)CC1 [Compound 632] | < 0.1 | < 0.1 | 0.101 to 1 | 
15 | O=C(NC[C@H](O)CN1CCc2ccccc2C1)C1=CC2=N[C@@H](CO)CN2C=N1 [Compound 634] | > 1 | 0.101 to 1 | > 5 | 
16 | CC(=O)N1CC(Nc2ccnc(C(=O)NC[C@H](O)CN3CCc4ccccc4C3)c2)C1 [Compound 635] | < 0.1 | < 0.1 | < 0.1 | 
17 | O=C(NC[C@H](O)CN1CCc2ccccc2C1)c1cc(NC2CN(C(=O)C3CC3)C2)ccn1 [Compound 636] | < 0.1 | < 0.1 | < 0.1 | 
18 | O=C(NC[C@H](O)CN1CCc2ccccc2C1)c1cc(N[C@H]2C[C@@H](N3CCOCC3)C2)ncn1 [Compound 637] | < 0.1 | < 0.1 | 0.101 to 1 | 
19 | O=C(NC[C@H](O)CN1CCc2ccccc2C1)c1cc(NC2CCN(C(=O)C3CC3)CC2)ccn1 [Compound 638] | < 0.1 | < 0.1 | < 0.1 | 
20 | CSCCN1CCC(Nc2cc(C(=O)NC[C@H](O)CN3CCc4ccccc4C3)ncn2)CC1 [Compound 639] | < 0.1 | < 0.1 | 1 to 10 | 
21 | CCS(=O)(=O)CCN1CCC(Nc2cc(C(=O)NC[C@H](O)CN3CCc4ccccc4C3)ncn2)CC1 [Compound 640] | < 0.1 | < 0.1 |  | 0.101 to 1
22 | CCS(=O)(=O)CCNc1cc(C(=O)NC[C@H](O)CN2CCc3ccccc3C2)ncn1 [Compound 641] | < 0.1 | < 0.1 | 1 to 10 | 
23 | CC(=O)N1CC[C@@H](Nc2cc(C(=O)NC[C@H](O)CN3CCc4ccccc4C3)ncn2)C1 [Compound 642] | < 0.1 | < 0.1 | 0.101 to 1 | 
24 | CC(O)(CNC(=O)c1cc(NC2COC2)ncn1)CN1CCc2ccccc2C1 (stereo not drawn) [Compound 646] | 0.101 to 1 | 0.101 to 1 | > 20 | 
25 | CC(O)(CNC(=O)c1cc(NC2CCNCC2)ncn1)CN1CCc2ccccc2C1 (stereo not drawn) [Compound 647] | > 1 | 1 to 10 | > 5 | 
26 | CN1CCC(Nc2cc(C(=O)NCC(C)(O)CN3CCc4ccccc4C3)ncn2)CC1 (stereo not drawn) [Compound 648] | > 1 | 1 to 10 | > 5 | 
27 | CC(=O)N1CCC(Nc2cc(C(=O)NCC(C)(O)CN3CCc4ccccc4C3)ncn2)CC1 (stereo not drawn) [Compound 649] | < 0.1 | < 0.1 | 1 to 10 | 
28 | CC(O)(CNC(=O)c1cc(NC2CCN(C(=O)C3CC3)CC2)ncn1)CN1CCc2ccccc2C1 (stereo not drawn) [Compound 650] | < 0.1 | < 0.1 | 1 to 10 | 
29 | O=C(NCCCN1CCc2ccccc2C1)c1cc(NC2COC2)ncn1 [Compound 651] | > 1 | 0.101 to 1 | > 5 | 

Continued, in another order:

Row | EC50 [1] [µM] | IC50 [3] [µM] | SMILES | EC50 [2, 4] [µM] | EC50 ([2]; Z-138, 120 h) [µM]
30 | 0.101 to 1 | < 0.1 | CC(=O)N1CC(Nc2cc(C(=O)NCCCN3CCc4ccccc4C3)ncn2)C1 [Compound 652] | > 5 | 
31 | < 0.1 | < 0.1 | CC(=O)N1CCC(Nc2cc(C(=O)NCCCN3CCc4ccccc4C3)ncn2)CC1 [Compound 653] | 1 to 10 | 
32 | < 0.1 | < 0.1 | CC(=O)N1CCC(Nc2cc(C(=O)NCCCN3CCc4ccccc4C3)ccn2)CC1 [Compound 654] | 1 to 10 | 
33 | 0.101 to 1 | 0.101 to 1 | CC(=O)N1CC(Nc2cc(C(=O)NCC(F)CN3CCc4ccccc4C3)ncn2)C1 (stereo not drawn) [Compound 655] | > 5 | 
34 | 0.101 to 1 | 0.101 to 1 | CC(=O)N1CCC(Nc2cc(C(=O)NCC(F)CN3CCc4ccccc4C3)ncn2)CC1 (stereo not drawn) [Compound 656] | > 5 | 
35 | < 0.1 | < 0.1 | CC(CNC(=O)c1cc(NC2COC2)ncn1)CN1CCc2ccccc2C1 (stereo not drawn) [Compound 657] | > 5 | 
36 | < 0.1 | < 0.1 | CC(=O)N1CCC(Nc2cc(C(=O)NCC(C)CN3CCc4ccccc4C3)ncn2)CC1 (stereo not drawn) [Compound 658] | 0.101 to 1 | 
37 | < 0.1 | < 0.1 | CC(=O)N1CC(Nc2cc(C(=O)NCC(C)CN3CCc4ccccc4C3)ncn2)C1 (stereo not drawn) [Compound 659] | 0.101 to 1 | 
38 | < 0.1 | < 0.1 | CC(=O)N1CCC(Nc2cc(C(=O)NCC(C)CN3CCc4ccccc4C3)ccn2)CC1 (stereo not drawn) [Compound 660] | 0.101 to 1 | 
39 | < 0.1 | < 0.1 | CN[C@H]1CC[C@H](Nc2cc(C(=O)NC[C@H](O)CN3CCc4ccccc4C3)ncn2)CC1 [Compound 661] | 0.101 to 1 | 
40 | < 0.1 | < 0.1 | CCN(C)[C@H]1CC[C@H](Nc2cc(C(=O)NC[C@H](O)CN3CCc4ccccc4C3)ncn2)CC1 [Compound 662] | 0.101 to 1 | 
41 | < 0.1 | < 0.1 | CC(=O)N1CC(Nc2cc(C(=O)NC[C@H](O)CN3CCc4cccc(C)c4C3)ncn2)C1 [Compound 663] | 0.101 to 1 | 
42 | < 0.1 | < 0.1 | CC(=O)N1CCC(Nc2cc(C(=O)NC[C@H](O)CN3CCc4cccc(C)c4C3)ncn2)CC1 [Compound 664] | 0.101 to 1 | 
43 | < 0.1 | < 0.1 | CC(=O)N1CCC(Nc2cc(C(=O)NC[C@H](O)CN3CCc4cccc(C)c4C3)ccn2)CC1 [Compound 665] | < 0.1 | 
44 | 0.101 to 1 | 0.101 to 1 | Cc1ccc2c(c1)CN(C[C@@H](O)CNC(=O)c1cc(NC3COC3)ncn1)CC2 [Compound 666] | > 5 | 
45 | < 0.1 | 0.101 to 1 | CC(=O)N1CC(Nc2cc(C(=O)NC[C@H](O)CN3CCc4ccc(C)cc4C3)ncn2)C1 [Compound 667] | 1 to 10 | 
46 | < 0.1 | < 0.1 | CC(=O)N1CCC(Nc2cc(C(=O)NC[C@H](O)CN3CCc4ccc(C)cc4C3)ncn2)CC1 [Compound 668] | 1 to 10 | 
47 | < 0.1 | < 0.1 | CC(=O)N1CCC(Nc2cc(C(=O)NC[C@H](O)CN3CCc4ccc(C)cc4C3)ccn2)CC1 [Compound 669] | 0.101 to 1 | 
48 | < 0.1 | < 0.1 | CC(=O)N1CCC(Nc2cc(C(=O)NC[C@H](O)CN3CCc4c(C)cccc4C3)ccn2)CC1 [Compound 670] | 0.101 to 1 | 
49 | < 0.1 | < 0.1 | CC(=O)N(C)[C@H]1CC[C@H](Nc2cc(C(=O)NC[C@H](O)CN3CCc4ccccc4C3)ncn2)CC1 [Compound 671] | < 0.1 | 
50 | < 0.1 | < 0.1 | COCCN(C)c1cc(NC2CCN(C(C)=O)CC2)cc(C(=O)NC[C@H](O)CN2CCc3ccccc3C2)n1 [Compound 672] | < 0.1 | 
51 | < 0.1 | < 0.1 | Cc1cccc2c1CN(C[C@@H](O)CNC(=O)c1cc(NC3COC3)ncn1)CC2 [Compound 673] | 1 to 10 | 

Reference: patent US10307413B2, “Tetrahydro- and dihydro-isoquinoline PRMT5 inhibitors and uses thereof” (Epizyme, Inc., priority 2013, dated 2019)
